Assay results as given in patent US10105357B2, “Indication of antibiotic drugs for preparation of cancer inhibition pharmaceutical composition” (LAUNX BIOMEDICAL CO., LTD., priority 2014, dated 2018).
Read-outs that look alike come from different tables or passages of the source.

What was measured:
Type in all cases: cell-based, human
[1] = system: HepG2 (Hepatocellular Carcinoma); assay: Cell viability analysis, hepatic cancer HepG2; settings: Homo sapiens, HepG2, 72 h
[2] = system: SAS (Tongue squamous cell carcinoma); assay: Cell viability analysis, tongue cancer SAS; settings: Homo sapiens, 72 h, read-out: The results of antibiotic drug inhibiting cancer cell lines (cell viability analysis), SAS
[3] = system: BxPC-3; assay: Cell viability analysis, pancreatic cancer BxPC-3; settings: Homo sapiens, BXPC-3, 72 h, read-out: The results of antibiotic drug inhibiting cancer cell lines (cell viability analysis), BxPC-3
[4] = system: cancer cell lines; assay: Cell viability analysis (WST-1) on cancer cell lines; settings: drug 10 μM, 72 hours, WST-1; Table 3
[5] = system: LoVo (Colorectal Adenocarcinoma); assay: Cell viability analysis, colon cancer LoVo; settings: Homo sapiens, LoVo, 72 h
[6] = system: HI650 (Lung Adenocarcinoma); assay: Cell viability analysis, lung cancer HI650; settings: Homo sapiens, NCI-H1650, 72 h
[7] = system: BCC (basal cell carcinoma); assay: Cell viability analysis, skin cancer BCC; settings: Homo sapiens, 72 h, read-out: The results of antibiotic drug inhibiting cancer cell lines (cell viability analysis), BCC
[8] = system: C-33A (Cervical carcinoma); assay: Cell viability analysis, cervical cancer C-33A; settings: Homo sapiens, C-33-A, 72 h, read-out: The results of antibiotic drug inhibiting cancer cell lines (cell viability analysis), C-33A
[9] = system: PC3 (p53−) (Prostate Adenocarcinoma); assay: Cell viability analysis, prostate cancer PC3; settings: Homo sapiens, 72 h
[10] = system: MCF7 (Mammary Gland, Adenocarcinoma); assay: Cell viability analysis, breast cancer MCF7; settings: Homo sapiens, MCF7, 72 h
[11] = system: NIH: OVCAR-3; assay: Cell viability analysis, ovarian cancer NIH: OVCAR-3; settings: Homo sapiens, OVCAR-3, 72 h, read-out: The results of antibiotic drug inhibiting cancer cell lines (cell viability analysis), NIH-OVCAR-3
[12] = system: HL-60 (Acute Promyelocytic Leukemia); assay: Cell viability analysis, leukemia HL-60; settings: Homo sapiens, HL-60, 72 h, read-out: cell viability (survival rate), HL-60, drug 10 μM, 72 hours, WST-1, OD450 nm
[13] = system: A549 (Lung Adenocarcinoma); assay: Cell viability analysis, lung cancer A549; settings: Homo sapiens, A549, 72 h
[14] = system: U-2OS; assay: Cell viability analysis, osteosarcoma U-2OS; settings: Homo sapiens, U2OS, 72 h, read-out: The results of antibiotic drug inhibiting cancer cell lines (cell viability analysis), U2OS
[15] = system: TOV-21G; assay: Cell viability analysis, ovarian cancer TOV-21G; settings: Homo sapiens, TOV21G, 72 h, read-out: The results of antibiotic drug inhibiting cancer cell lines (cell viability analysis), TOV-21G
[16] = system: T24; assay: Cell viability analysis, bladder cancer T24; settings: Homo sapiens, T-24, 72 h, read-out: The results of antibiotic drug inhibiting cancer cell lines (cell viability analysis), T24
[17] = system: AsPC-1; assay: Cell viability analysis, pancreatic cancer AsPC-1; settings: Homo sapiens, ASPC1, 72 h, read-out: The results of antibiotic drug inhibiting cancer cell lines (cell viability analysis), AsPC-1
[18] = system: A375 (Amelanotic Melanoma); assay: Cell viability analysis, skin cancer A375; settings: Homo sapiens, A-375, 72 h
[19] = system: TSGH-8301 (Urinary Bladder Carcinoma); assay: Cell viability analysis, bladder cancer TSGH-8301; settings: Homo sapiens, 72 h
[20] = system: MDA-MB-231 (Mammary Gland, Adenocarcinoma); assay: Cell viability analysis, breast cancer MDA-MB-231; settings: Homo sapiens, MDA-MB-231, 72 h, read-out: The results of antibiotic drug inhibiting cancer cell lines (cell viability analysis), MDA-MB231
[21] = system: Hep3B (hepatocellular carcinoma); assay: Cell viability analysis, hepatic cancer Hep3B; settings: Homo sapiens, Hep3B, 72 h, read-out: The results of antibiotic drug inhibiting cancer cell lines (cell viability analysis), Hep3B
[22] = system: AGS (Gastric Adenocarcinoma); assay: Cell viability analysis, gastric cancer AGS; settings: Homo sapiens, 72 h
[23] = system: MKN-45 (Gastric Adenocarcinoma); assay: Cell viability analysis, gastric cancer MKN-45; settings: Homo sapiens, MKN-45, 72 h
[24] = system: HeLa (Cervix Adenocarcinoma); assay: Cell viability analysis, cervical cancer HeLa; settings: Homo sapiens, HeLa, 72 h

`CC(NC(C)(C)C)C(=O)c1cccc(Cl)c1` (centres unmarked) [Amfebutamone (Bupropion), Amfebutamone] gave a viability at 10 µM ([1]; read-out: The results of antibiotic drug inhibiting cancer cell lines (cell viability analysis), HepG2, HepG2, repeated experiment) of 92.3%, a viability at 10 µM ([1]; read-out: cell viability (survival rate), HepG2, drug 10 μM, 72 hours, WST-1, OD450 nm) of 85.1% and a viability at 10 µM [2] of 110%. The viability at 10 µM [3] was 79.6%, the “inhibition effect on different cancer cell lines” value [4] was “significant inhibition effect” and the viability at 10 µM ([5]; read-out: The results of antibiotic drug inhibiting cancer cell lines (cell viability analysis), LoVo, repeated experiment) was 115%. For the same molecule, the viability at 10 µM ([5]; read-out: cell viability (survival rate), LoVo, drug 10 μM, 72 hours, WST-1, OD450 nm) was 51.4%, the viability at 10 µM ([6]; read-out: The results of antibiotic drug inhibiting cancer cell lines (cell viability analysis), H1650, H1650, repeated experiment) was 96% and the viability at 10 µM ([6]; read-out: cell viability (survival rate), H1650, drug 10 μM, 72 hours, WST-1, OD450 nm) was 74.3%. For the same molecule, the viability at 10 µM [7] was 77.5%, the viability at 10 µM [8] was 107% and the viability at 10 µM ([9]; read-out: The results of antibiotic drug inhibiting cancer cell lines (cell viability analysis), PC-3, PC-3, repeated experiment) was 87.9%. It also gave a viability at 10 µM ([9]; read-out: cell viability (survival rate), PC3, drug 10 μM, 72 hours, WST-1, OD450 nm) of 62.8%, a viability at 10 µM ([10]; read-out: The results of antibiotic drug inhibiting cancer cell lines (cell viability analysis), MCF-7, MCF-7, repeated experiment) of 69% and a viability at 10 µM ([10]; read-out: cell viability (survival rate), MCF7, drug 10 μM, 72 hours, WST-1, OD450 nm) of 64.7%. For the same molecule, the viability at 10 µM [11] was 109%, the viability at 10 µM [12] was 118% and the viability at 10 µM ([13]; read-out: The results of antibiotic drug inhibiting cancer cell lines (cell viability analysis), A549, A549, repeated experiment) was 69.1%. For the same molecule, the viability at 10 µM ([13]; read-out: cell viability (survival rate), A549, drug 10 μM, 72 hours, WST-1, OD450 nm) was 59.2%, the viability at 10 µM [14] was 92.3% and the viability at 10 µM [15] was 97.5%. It also gave a viability at 10 µM [16] of 99.6%, a viability at 10 µM [17] of 84.3% and a viability at 10 µM ([18]; read-out: The results of antibiotic drug inhibiting cancer cell lines (cell viability analysis), A375, A375, repeated experiment) of 88.4%. For the same molecule, the viability at 10 µM ([18]; read-out: cell viability (survival rate), A375, drug 10 μM, 72 hours, WST-1, OD450 nm) was 88.2%, the viability at 10 µM ([19]; read-out: The results of antibiotic drug inhibiting cancer cell lines (cell viability analysis), TSGH-8301, TSGH-8301, repeated experiment) was 116% and the viability at 10 µM ([19]; read-out: cell viability (survival rate), TSGH, drug 10 μM, 72 hours, WST-1, OD450 nm) was 44.9%. For the same molecule, the viability at 10 µM [20] was 80.3%, the viability at 10 µM [21] was 82.1% and the viability at 10 µM ([22]; read-out: The results of antibiotic drug inhibiting cancer cell lines (cell viability analysis), AGS, repeated experiment) was 117%. For the same molecule, the viability at 10 µM ([22]; read-out: cell viability (survival rate), AGS, drug 10 μM, 72 hours, WST-1, OD450 nm) was 30%, the viability at 10 µM ([23]; read-out: The results of antibiotic drug inhibiting cancer cell lines (cell viability analysis), MKN-45, MKN-45, repeated experiment) was 103% and the viability at 10 µM ([23]; read-out: cell viability (survival rate), MKN-45, drug 10 μM, 72 hours, WST-1, OD450 nm) was 52.1%. The viability at 10 µM ([24]; read-out: The results of antibiotic drug inhibiting cancer cell lines (cell viability analysis), HeLa, repeated experiment) was 84.5% and the viability at 10 µM ([24]; read-out: cell viability (survival rate), HeLa, drug 10 μM, 72 hours, WST-1, OD450 nm) was 53.4%.
